# Measurements reported in patent publication US7001600B1, “Identification of TRP-2 as a human tumor antigen recognized by cytotoxic T lymphocytes” (The United States of America as represented by the …, priority 1996, dated 2006).
# “Also recorded” adds a separate entry of the source.
# Assays:
# Type in all cases: cell-based, human
# CTL clone 4 (TRP-2) [1] = assay: GM-CSF secretion assay: CTL clone 4 co-incubated with peptide-pulsed target cells; settings: for CTL clone 4 GM-CSF release: 586EBV cells pulsed with peptide at 0.5-g/ml for 90 min, in pg/mL
# Description: (§1) The T cell clones were generated by limiting dilution methods (at 1 cells/well) from the TIL586 cell line, and used allogenic PBL (1×10^3 cells/well) as feeder cells in RPMI1640 containing 10% human AB sera and 500 IU IL-2. After 12 days, T cell clones were then expanded in AIM-V medium containing 6000 IU/ml IL-2. To obtain an optimal expansion, we used the OKT3 expansion method described by S. Riddell (Walter et al. (1995)). Briefly, on day 0, 5×10^4 5×10^5 T cells were cocultured with HLA-A31 PBL (500:1, PBL: T cell ratio) and 586EBV B cells (100: 1, EBV: T cell ratio) in 25 ml RPMI 1640 containing 11% human sera, 30 ng/ml OKT3 antibody and antibiotics. On day 1, IL-2 was added at final concentration of 180 IU/ml. The media were changed with fresh media containing 11% human sera, IL-2 180 IU/ml on day 5. The media were then changed every three days. On day 12–14, T cells were harvested, counted and cryopreserved. TIL586 were isolated from the tumor specimen of a patient with metastatic melanoma and grown in medium containing IL-2 (6000 IU/ml) (Chiron) for 32–60 days as previously described [Topalian et al. 1988). TIL586 were predominantly CD8+ T cells. DNA transfection and GM-CSF assays were performed as previously described (Wang et al. 1995). Briefly, 200 ng of DNA encoding antigens and 50 ng of the HLA-A31 DNA were mixed with 2 μl of lipofectamine in […] of DMEM for 15–45 min. The DNA/lipofectamine mixture was then added to the COS-7 (5×104) cells and incubated overnight. The following day, cells were washed twice with DMEM medium. TIL586 was added at a concentration of 1×10^5 cells/well in AIM-V medium containing 120 IU/ml of IL-2. For T cell clones, only 1–2×10^4 cells/well were added. After 18–24 h incubation, 100 μl of supernatant was collected and GM-CSF was measured in a standard ELISA assay (R+D^− Systems, Minneapolis, Minn.). For testing peptides recognition, 586EBV or T2 cells were incubated with peptides at 37° C. for 90 min, and then washed three times with AIM-V medium containing 120 IU/ml of IL-2. T cells were added and incubated for an additional 18–24 h, 100 μl of supernatant was collected for GM-CSF assay.
# CTL clone 1 (TRP-1) [2] = assay: GM-CSF secretion assay: CTL clone 1 (TIL586-C1) co-incubated with peptide-pulsed target cells
# Description: as §1
# CTL clone 4 = assay: Cytotoxicity assay (Calcein AM): lysis of peptide-pulsed target cells by CTL clone 4; settings: for lysis of peptide-pulsed 586EBV B cells by CTL clone 4 (in words): different E:T ratios, peptide pulsed 90 min
# Experimental: Cytolysis was determined by use of Calcein AM (Molecular Probes, Eugene, Oreg.). Briefly, T2 or 586EBV B cells were pulsed with peptides in RPMI1640/5% FCS for 90 min. Tumor cells and the peptide pulsed EBV B cells were labelled with Calcein AM (15 μl of 1 mg/ml Calcein AM for every 1×10^6 cells) for 30 min at 37. C. Following incubation, cells were washed three times with AIM V/120 IU IL-2. 1×10^3 target cells were mixed with T cells at various E:T ratio. After 4 h incubation at 37° C., 5 μl of bovine hemoglobin quench solution containing ethidium bromide was added. The plate was read by Lambda scan. The percentage of lysis was calculated from the following equation: [1−(A−B)/(C−B)]×100 where A is the reading of non-lysed cells in the presence of T cells, B is background signal value and C is the maximum signal value from target cells.
# CTL clone 4 (TRP-2) [3] = assay: GM-CSF secretion assay: CTL clone 4 co-incubated with peptide-pulsed target cells; settings: 1510EBV (HLA-A31+) cells pulsed with peptide at 1-g/ml for 90 min
# CTL clone 1 (TRP-1) [4] = assay: GM-CSF secretion assay: CTL clone 1 (TIL586-C1) co-incubated with peptide-pulsed target cells; settings: 1510EBV (HLA-A31+) cells pulsed with peptide at 1-g/ml for 90 min
# [5] = 586EBV (HLA-A31+) cells pulsed with peptide at 1-g/ml for 90 min, T cells alone subtracted
# [6] = T2 (HLA-A31 negative) cells pulsed with peptide at 1-g/ml for 90 min
# [7] = peptide pulsed on 586EBV B cells
# [8] = titration, peptide pulsed on 586EBV B cells
# [9] = 586EBV B cells pulsed with peptide, E:T ratio 40:1, 4 h
sequence,measurement,setting,value
ALGPGRPYR,CTL clone 4 GM-CSF release,CTL clone 4 (TRP-2) [1]; T cells alone subtracted,<50
LSGPGRPYR,CTL clone 4 GM-CSF release,CTL clone 4 (TRP-2) [1]; T cells alone subtracted,3300
LLGPGVPYR,CTL clone 4 GM-CSF release,CTL clone 4 (TRP-2) [1]; T cells alone subtracted,<50
LLGPGRPYRA,CTL clone 4 GM-CSF release,CTL clone 4 (TRP-2) [1]; T cells alone subtracted,545
LLGPGRPYH,CTL clone 4 GM-CSF release,CTL clone 4 (TRP-2) [1]; T cells alone subtracted,<50
"LLGPGRPYR [TRP197–205, 9mer antigenic peptide of TRP-2, amino acids 197–205]",GSM-CSF release CTL clone 4 (TRP-2),CTL clone 4 (TRP-2) [1]; [5],> 4000 pg/mL
same,CTL clone 4 GM-CSF release,CTL clone 4 (TRP-2) [1]; T cells alone subtracted,3450
same,GSM-CSF release CTL clone 4 (TRP-2),CTL clone 4 (TRP-2) [1]; [6],< 50 pg/mL
same,recognition by CTL clone 4 / stimulation of cytokine release (in words),CTL clone 4 (TRP-2) [1]; [7],strongly recognized; also recorded: most efficiently stimulated cytokine release from T cells
same,peptide concentration at which stimulation of GM-CSF release reached a plateau,CTL clone 4 (TRP-2) [1]; [8],500 nM
same,peptide concentration sufficient to stimulate GM-CSF release from T cell clone 4,CTL clone 4 (TRP-2) [1]; [8],1 nM
same,GSM-CSF release CTL clone 1 (TRP-1),CTL clone 1 (TRP-1) [2]; [5],< 50 pg/mL
same,GSM-CSF release CTL clone 1 (TRP-1),CTL clone 1 (TRP-1) [2]; [6],< 50 pg/mL
same,peptide concentration at which lysis of target cells by CTL clone 4 was detected,CTL clone 4; [9],1 nM
same,peptide concentration of maximum lysis,CTL clone 4; [9],100 nM
same,lysis of peptide-pulsed 586EBV B cells by CTL clone 4 (in words),CTL clone 4,capable of lysing
same,GSM-CSF release CTL clone 4 (TRP-2),CTL clone 4 (TRP-2) [3],> 4000 pg/mL
same,GSM-CSF release CTL clone 1 (TRP-1),CTL clone 1 (TRP-1) [4],< 50 pg/mL
LLGPGRPYK,CTL clone 4 GM-CSF release,CTL clone 4 (TRP-2) [1]; T cells alone subtracted,2000
LIGPGRPYR,CTL clone 4 GM-CSF release,CTL clone 4 (TRP-2) [1]; T cells alone subtracted,2545
KLGPGRPYR,CTL clone 4 GM-CSF release,CTL clone 4 (TRP-2) [1]; T cells alone subtracted,420
"GPAFVTWHR [TRP213–221, synthetic TRP-2 peptide]",GSM-CSF release CTL clone 4 (TRP-2),CTL clone 4 (TRP-2) [1]; [5],< 50 pg/mL
same,GSM-CSF release CTL clone 1 (TRP-1),CTL clone 1 (TRP-1) [2]; [5],< 50 pg/mL
LVGPGRPYR,CTL clone 4 GM-CSF release,CTL clone 4 (TRP-2) [1]; T cells alone subtracted,2100
LLGPGIPYR,CTL clone 4 GM-CSF release,CTL clone 4 (TRP-2) [1]; T cells alone subtracted,<50
LLGPGAPYR,CTL clone 4 GM-CSF release,CTL clone 4 (TRP-2) [1]; T cells alone subtracted,<50
"VWLHYYSVR [TRP186–194, synthetic TRP-2 peptide]",GSM-CSF release CTL clone 4 (TRP-2),CTL clone 4 (TRP-2) [1]; [5],< 50 pg/mL
same,GSM-CSF release CTL clone 1 (TRP-1),CTL clone 1 (TRP-1) [2]; [5],< 50 pg/mL
LAGPGRPYR,CTL clone 4 GM-CSF release,CTL clone 4 (TRP-2) [1]; T cells alone subtracted,550
"MSLQRQFLR [ORF3P, control peptide derived from the alternative open reading frame of the TRP-1 gene, reference compound]",GSM-CSF release CTL clone 4 (TRP-2),CTL clone 4 (TRP-2) [1]; [5],< 50 pg/mL
same,GSM-CSF release CTL clone 4 (TRP-2),CTL clone 4 (TRP-2) [1]; [6],< 50 pg/mL
same,GSM-CSF release CTL clone 1 (TRP-1),CTL clone 1 (TRP-1) [2]; [5],> 8000 pg/mL
same,GSM-CSF release CTL clone 1 (TRP-1),CTL clone 1 (TRP-1) [2]; [6],< 50 pg/mL
same,lysis of peptide-pulsed 586EBV B cells by CTL clone 4 (in words),CTL clone 4,failed to lyse
same,GSM-CSF release CTL clone 4 (TRP-2),CTL clone 4 (TRP-2) [3],< 50 pg/mL
same,GSM-CSF release CTL clone 1 (TRP-1),CTL clone 1 (TRP-1) [4],> 6000 pg/mL
LLAPGRPYR,CTL clone 4 GM-CSF release,CTL clone 4 (TRP-2) [1]; T cells alone subtracted,<50
LLGPGKPYR,CTL clone 4 GM-CSF release,CTL clone 4 (TRP-2) [1]; T cells alone subtracted,321
LGPGRPYR,CTL clone 4 GM-CSF release,CTL clone 4 (TRP-2) [1]; T cells alone subtracted,<50
LLFPGRPYR,CTL clone 4 GM-CSF release,CTL clone 4 (TRP-2) [1]; T cells alone subtracted,<50
"FVWLHYYSVR [TRP185–194, synthetic TRP-2 peptide]",GSM-CSF release CTL clone 4 (TRP-2),CTL clone 4 (TRP-2) [1]; [5],< 50 pg/mL
same,GSM-CSF release CTL clone 1 (TRP-1),CTL clone 1 (TRP-1) [2]; [5],< 50 pg/mL
LLLPGRPYR,CTL clone 4 GM-CSF release,CTL clone 4 (TRP-2) [1]; T cells alone subtracted,<50
TLLGPGRPYR [10mer extended byone amino acid at the N-terminus of TRP 197-205],CTL clone 4 GM-CSF release,CTL clone 4 (TRP-2) [1]; T cells alone subtracted,2100
same,"reactivity (GM-CSF release, CTL clone 4) relative to the parental 9mer LLGPGRPYR",CTL clone 4 (TRP-2) [1]; [7],about 60%
"RDTLLGPGR [TRP194–202, synthetic TRP-2 peptide]",GSM-CSF release CTL clone 4 (TRP-2),CTL clone 4 (TRP-2) [1]; [5],< 50 pg/mL
same,GSM-CSF release CTL clone 1 (TRP-1),CTL clone 1 (TRP-1) [2]; [5],< 50 pg/mL
LFGPGRPYR,CTL clone 4 GM-CSF release,CTL clone 4 (TRP-2) [1]; T cells alone subtracted,<50
RLGPGRPYR,CTL clone 4 GM-CSF release,CTL clone 4 (TRP-2) [1]; T cells alone subtracted,<50
LLGPGFPYR,CTL clone 4 GM-CSF release,CTL clone 4 (TRP-2) [1]; T cells alone subtracted,738
